For orientation: IC50 means the concentration that inhibits the measured activity by half.

Experiment [1] has as its target T1, Recombinant (1-346) HPK1 (h) (Homo sapiens, UniProt Q92918).
T1 construct: Recombinant (1-346) HPK1 (h) is incubated with 8 mM MOPS pH 7.0
T1 sequence (Q92918 1-346): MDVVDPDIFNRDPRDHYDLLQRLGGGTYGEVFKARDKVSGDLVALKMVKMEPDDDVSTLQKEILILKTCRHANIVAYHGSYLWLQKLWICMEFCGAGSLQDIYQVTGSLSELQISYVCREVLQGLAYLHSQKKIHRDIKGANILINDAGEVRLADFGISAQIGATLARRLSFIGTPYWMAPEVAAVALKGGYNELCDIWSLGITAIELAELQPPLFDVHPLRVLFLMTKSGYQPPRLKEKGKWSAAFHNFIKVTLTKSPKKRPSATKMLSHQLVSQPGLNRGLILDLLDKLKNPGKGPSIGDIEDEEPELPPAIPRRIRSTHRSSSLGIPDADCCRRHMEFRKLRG
Kind of experiment: HPK1 human STE kinase enzymatic radiometric assay. The format is biochemical. The conditions noted are these: read-out: HPK1 IC50 nM Range. An outline of the steps: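 Recombinant HPK1 (1-346) incubated 40 min at RT with 0.33 mg/mL myelin basic protein and [gamma-33P]-ATP in 8 mM MOPS pH 7.0, 0.2 mM EDTA, 10 mM Mg acetate; reaction started with Mg/ATP. Stopped with 0.5% phosphoric acid, spotted on P30 filtermat, washed, scintillation counted. Compounds tested as 9-point 3-fold dilutions.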

A further experiment concerns the target Lck (h) (Homo sapiens, UniProt P06239). Kind of experiment: Lck human STE kinase enzymatic radiometric assay. The experiment is classed as biochemical. The conditions noted are these: read-out: Lck IC50 nM Range. The method, then:
(b) Lck Human STE Kinase Enzymatic Radiometric Assay
Lck (h) is incubated with 50 mM Tris pH 7.5, 0.1 mM EGTA, 0.1 mM Na3VO4, 250 uM KVEKIGEGTYGVVYK (Cdc2 peptide), 10 mM MgAcetate and [gamma-33P]-ATP (specific activity and concentration as required). The reaction is initiated by the addition of the Mg/ATP mix. After incubation for 40 minutes at room temperature, the reaction is stopped by the addition of phosphoric acid to a concentration of 0.5%, 10 μL of the reaction is then spotted onto a P30 filtermat and washed four times for 4 minutes in 0.425% phosphoric acid and once in methanol prior to drying and scintillation counting. For more details on the kinase assay procedures see: Gao, Y. et. al.; Biochem J., 451 (2): 313-328, 2013.

Each structure is given as a SMILES string.

Chain of Lck (h) (P06239 whole entry): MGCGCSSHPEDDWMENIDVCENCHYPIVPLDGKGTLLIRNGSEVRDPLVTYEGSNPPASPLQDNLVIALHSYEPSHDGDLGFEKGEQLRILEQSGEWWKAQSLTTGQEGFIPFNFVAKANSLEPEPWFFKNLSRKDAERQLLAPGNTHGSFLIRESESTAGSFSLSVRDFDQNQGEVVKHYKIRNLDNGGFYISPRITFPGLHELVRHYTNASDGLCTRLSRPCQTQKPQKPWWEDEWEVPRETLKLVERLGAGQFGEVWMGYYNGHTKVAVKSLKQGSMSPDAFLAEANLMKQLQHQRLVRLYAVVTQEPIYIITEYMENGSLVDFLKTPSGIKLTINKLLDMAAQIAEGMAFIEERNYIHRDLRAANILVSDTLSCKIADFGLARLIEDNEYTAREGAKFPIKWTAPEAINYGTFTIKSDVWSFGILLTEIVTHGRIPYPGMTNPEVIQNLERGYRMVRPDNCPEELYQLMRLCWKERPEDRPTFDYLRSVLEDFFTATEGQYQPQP

Regarding `Cc1c[nH]c(=O)c2ccc(-c3nc(-c4ccc(N5CCN(CC6CC6)CC5)cc4)c(F)nc3N)cc12` [Example I-72, 6-(3-amino-6-(4-(4-(cyclopropylmethyl)piperazin-1-yl)phenyl)-5-fluoropyrazin-2-yl)-4-methylisoquinolin-1(2H)-one], the figures for the IC50 (in experiment [1]; at Lck (h)) were 0.1 to 10 nM and above 1000 nM, respectively.

Regarding `Cc1[nH]c(=O)c2ccc(-c3nc(-c4ccc(N5CCN(C(C)C)CC5)cc4)c(F)nc3N)cc2c1F` [Example I-71, 6-(3-amino-5-fluoro-6-(4-(4-isopropylpiperazin-1-yl)phenyl)pyrazin-2-yl)-4-fluoro-3-methylisoquinolin-1(2H)-one], the IC50 in experiment [1] is 0.1 to 10 nM; at Lck (h), above 1000 nM.

For the compound `Cc1[nH]c(=O)c2c(F)cc(-c3nc(-c4ccc(C5CCOCC5)c(CN(C)C)c4)c(F)nc3N)cc2c1F` [Example I-117, 6-(3-amino-6-(3-((dimethylamino)methyl)-4-(tetrahydro-2H-pyran-4-yl)phenyl)-5-fluoropyrazin-2-yl)-4,8-difluoro-3-methylisoquinolin-1(2H)-one], the IC50 is 0.1 to 10 nM in experiment [1] and above 1000 nM on Lck (h).

As to `CC(C)N1CCN(c2ccc(-c3nc(-c4ccc5c(c4)C4(CC4)CNC5=O)c(N)nc3F)cc2)CC1` [Example I-103, 6′-(3-amino-5-fluoro-6-(4-(4-isopropylpiperazin-1-yl)phenyl)pyrazin-2-yl)-2′,3′-dihydro-1′H-spiro[cyclopropane-1,4′-isoquinolin]-1′-one], the IC50 lay in the range of 0.1 to 10 nM in experiment [1] and 101 to 1000 nM on Lck (h).

With `CC(C)N1CCN(c2ccc(-c3nc(-c4ccc5c(=O)[nH]ncc5c4)c(N)nc3F)cc2)CC1` [Example I-38, 6-(3-amino-5-fluoro-6-(4-(4-isopropylpiperazin-1-yl)phenyl)pyrazin-2-yl)phthalazin-1(2H)-one], the figures for the half-maximal inhibitory concentration (IC50) (in experiment [1]; at Lck (h)) were 11 to 100 nM and above 1000 nM, respectively.

In the case of `COC1CCN(Cc2cc(-c3nc(-c4ccc5c(c4)CCNC5=O)c(N)nc3F)ccc2N2CCOCC2)C1` (centres unmarked) [Example I-133, 6-(3-amino-5-fluoro-6-(3-((3-methoxypyrrolidin-1-yl)methyl)-4-morpholinophenyl)pyrazin-2-yl)-3,4-dihydroisoquinolin-1(2H)-one], the IC50 in experiment [1] was 0.1 to 10 nM; on Lck (h) it was above 1000 nM.

`CC(C)N1CCN(c2ccc(-c3nc(-c4ccc5c(=O)[nH]cc(Cl)c5c4)c(N)nc3F)cc2)CC1` [Example I-78, 6-(3-amino-5-fluoro-6-(4-(4-isopropylpiperazin-1-yl)phenyl)pyrazin-2-yl)-4-chloroisoquinolin-1(2H)-one]: the IC50 in experiment [1] is 0.1 to 10 nM; on Lck (h), 101 to 1000 nM.

Take `CC(C1CC1)N1CCN(c2ccc(-c3nc(-c4cc(F)c5c(c4)CCNC5=O)c(N)nc3F)cc2)CC1` (single isomer, unassigned) [Example I-30, 6-(3-amino-6-(4-(4-(1-cyclopropylethyl)piperazin-1-yl)phenyl)-5-fluoropyrazin-2-yl)-8-fluoro-3,4-dihydroisoquinolin-1(2H)-one]: the IC50 in experiment [1] was 0.1 to 10 nM; at Lck (h), 101 to 1000 nM.

Regarding `Nc1nc(F)c(-c2ccc(N3CCOCC3)c(CN3CCC3)c2)nc1-c1cc(F)c2c(c1)CCNC2=O` [Example I-146, 6-(3-amino-6-(3-(azetidin-1-ylmethyl)-4-morpholinophenyl)-5-fluoropyrazin-2-yl)-8-fluoro-3,4-dihydroisoquinolin-1(2H)-one], the IC50 was 0.1 to 10 nM in experiment [1] and above 1000 nM on Lck (h).

In the case of `Nc1nc(F)c(-c2ccc(N3CCN(C4COC4)CC3)cc2)nc1-c1cc(F)c2c(c1)CCNC2=O` [Example I-44, 6-(3-amino-5-fluoro-6-(4-(4-(oxetan-3-yl)piperazin-1-yl)phenyl)pyrazin-2-yl)-8-fluoro-3,4-dihydroisoquinolin-1(2H)-one], the IC50 in experiment [1] was 0.1 to 10 nM; on Lck (h), above 1000 nM.

The record behind these values is patent publication US20240425479A1, “HALO-SUBSTITUTED AMINO AZA-HETEROARYL COMPOUNDS AS INHIBITORS OF THE HAEMATOPOIETIC PROGENITOR KINASE 1 (HPK1)” (priority 2021, published 2024).
